In patent US20200231562A1, “NOVEL MACROLIDE ANTIBIOTICS” (HELMHOLTZ-ZENTRUM FÜR INFEKTIONSFORSCHUNG GMBH, priority 2014, published 2020):
Values after ≈ are worked out from the molar mass of the structure shown.

Assays:
[1] = test system: S. aureus N315 Mt50DscA.9; test: Susceptibility (MIC) of Disciformycin A-resistant mutant; type: cell-based; conditions: Staphylococcus aureus
[2] = test system: S. aureus N315 mutant Mt50DscA.2; test: as above; type: cell-based; conditions: Staphylococcus aureus
[3] = test system: S. aureus N315 mutant Mt50DscA.11; test: as above; type: cell-based; conditions: Staphylococcus aureus
[4] = test system: S. aureus N315 mutant Mt50DscA.1; test: as above; type: cell-based; conditions: Staphylococcus aureus
[5] = test system: S. aureus N315 mutant Mt50DscA.8; test: as above; type: cell-based; conditions: Staphylococcus aureus
[6] = test system: S. aureus N315 mutant Mt50DscA.5; test: as above; type: cell-based; conditions: Staphylococcus aureus
[7] = test system: S. aureus N315 wildtype (WT); test: Susceptibility (MIC) of S. aureus N315 wildtype; type: cell-based; conditions: Staphylococcus aureus
[8] = test system: K-562 cells; test: Antiproliferative effect (CellTiter-Blue); type: cell-based, human; conditions: K-562, at a concentration of 100 μM
Procedure: (§1) The human monocytic cell line Mono Mac 6 was cultured in RPMI 1640 medium supplemented with FCS (10%, v/v), penicillin (100 U/ml), streptomycin (100 μg/ml), insulin (10 μg/ml), oxaloacetic acid (1 mM), sodium pyruvate (1 mM), and 1× non-essential amino acids at 37° C. and 5% CO2. A-549 cells (DSM ACC-107) were cultured in DMEM high glucose (4.5 g/l) medium supplemented with FCS (10% v/v), penicillin (100 U/ml) and streptomycin (100 μg/ml) at 37° C. in a 5% CO2 incubator. K-562 (DSM ACC 10) and HeLa cells (DSM ACC 57) were grown in RPMI 1640, whereas cells of HUVEC (ATCC CRL-1730) were cultured in DMEM medium. The respective media were supplemented with ultraglutamine 1 (10 ml/l), gentamicin sulfate (500 μl/l), and FCS (10% v/v).
(§2) The test substances were dissolved in methanol before being diluted in DMEM. The adherent cells were harvested at the logarithmic growth phase after soft trypsinization using 0.25% trypsin in PBS containing 0.02% EDTA. For each experiment, approximately 10,000 cells were seeded with 0.1 ml culture medium per well of the 96-well microplates. […] In case of K-562 cells, the number of viable cells in every well was determined using the CellTiter-Blue1 assay. […] The optical densities were measured at 660 nm in a SUNRISE microplate reader (TECAN).

[9] = test system: HUVEC cells; test: Antiproliferative effect (methylene blue staining); type: cell-based, human; conditions: at a concentration of 100 μM
Procedure: as §1, §2

[10] = test system: S. aureus N315 mutant Mt50DscA.3; test: Susceptibility (MIC) of Disciformycin A-resistant mutant; type: cell-based; conditions: Staphylococcus aureus
[11] = test system: S. aureus N315 mutant Mt50DscA.10; test: as above; type: cell-based; conditions: Staphylococcus aureus
[12] = test system: transformed lung epithelial A-549 cells; test: MTT assay, cytotoxic activity; type: cell-based, human; conditions: incubation 24 or 48 hours
Procedure: The cytotoxic activity of gulmirecin A (3) and gulmirecin B (4) against human cells was evaluated in the well-established MTT assay using primary monocytes from human peripheral blood as well as transformed lung epithelial cell A-549 cell and leukemic Mono Mac 6 cells. Furthermore, 3 and 4 were tested against K-562, HUVEC, and HeLa cells.
as §1
Cells (3×10^5 Mono Mac 6, 1×10^5 A-549 cells, or 2×10^6 monocytes per well) were seeded in a 96-well plate in the respective medium (100 μl/well). Monocytes were allowed to adhere for 1.5 hours (37° C., 5% CO2) prior to treatment. Test compounds (0.3% DMSO as vehicle) were added to each well and samples were incubated for 48 hrs. Then, 20 μl of thiazolyl blue tetrazolium bromide (MTT, 5 mg/ml PBS) were added, and the incubation was continued at 37° C., 5% CO2 until blue staining of the vehicle control. Formazan formation was stopped by adding 100 μl of lysis buffer (SDS, 10%, w/v in 20 mM HCl) and samples were shaken overnight. Absorbance of each well was measured at 570 nm in a Multiskan™ microplate spectrophotometer (Thermo Scientific).

[13] = test system: S. aureus N315 mutant Mt50DscA.6; test: Susceptibility (MIC) of Disciformycin A-resistant mutant; type: cell-based; conditions: Staphylococcus aureus
[14] = test system: Staphylococcus auricularis DSM 20609; test: Agar diffusion assay; type: cell-based; conditions: DSM20609, 50 μL of 0.5 mg in 1 mL methanol per 7 mm hole, n.a. = no activity observed, read-out: diameter of inhibition zone
Procedure: (§3) Antimicrobial activities of the gulmirecins were determined in a primary screen against Bacillus subtilis ATCC 6633, Staphylococcus aureus SG511, Staphylococcus auricularis DSM 20609, Mycobacterium vaccae IMET 10670, Pseudomonas aeruginosa K799/61, Escherichia coli SG458, Sporobolomyces salmonicolor SBUG 549, Candida albicans ATCC14053 and Penicillium notatum JP 36. To this end, holes with 7 mm diameter were aseptically punched in the respective agar medium. Subsequently, the agar plates were inoculated with the test organisms. 0.5 mg of every test compound was dissolved in 1 mL of methanol, and 50 μL of this solution was transferred to a single hole. Ciprofloxacin and amphotericin B served as positive controls. After evaporation of the solvent, the agar plates were incubated depending on the growth conditions of the test organisms. […] The test results are shown in Table 6 below, wherein the given values represent the diameters of the respective inhibition zone in the agar diffusion assay.

[15] = test system: Staphylococcus aureus SG511; test: Agar diffusion assay; type: cell-based; conditions: 50 μL of 0.5 mg in 1 mL methanol per 7 mm hole, n.a. = no activity observed, read-out: diameter of inhibition zone
Procedure: as §3

[16] = test system: S. aureus N315 mutant Mt50DscA.4; test: Susceptibility (MIC) of Disciformycin A-resistant mutant; type: cell-based; conditions: Staphylococcus aureus
[17] = test system: HeLa cells; test: Cytotoxic effect (methylene blue staining); type: cell-based, human; conditions: at a concentration of 100 μM
Procedure: as §1, §2

C/C=C(/C)[C@H]1C/C=C(\C)[C@@H](O[C@H]2O[C@H](CO)[C@@H](O)[C@@H]2O)[C@H](OC(=O)CC(C)C)C(=O)C[C@@H](O)[C@H](C)C(=O)O1 [Compound 3, gulmirecin A]
MIC [1]: > 64 µg/mL | MIC [2]: > 64 µg/mL | MIC [3]: > 64 µg/mL | MIC [4]: > 64 µg/mL | MIC [5]: > 64 µg/mL | MIC [6]: 64 µg/mL (≈ 118 µM) | MIC [7]: 4 µg/mL (≈ 7.37 µM) | inhibition of proliferation [8]: did not inhibit | inhibition of proliferation [9]: did not inhibit | MIC [10]: > 64 µg/mL | MIC [11]: > 64 µg/mL | cell viability / cytotoxicity (MTT) [12]: no reduction in cell viability at the concentrations required for antibacterial activity | MIC [13]: > 64 µg/mL | zone of inhibition at 25 µg/hole [14]: 31 mm | zone of inhibition at 25 µg/hole [15]: 29 mm | MIC [16]: > 64 µg/mL | inhibition of proliferation [17]: did not inhibit

C/C=C(/C)[C@H]1C/C=C(\C)[C@@H](O[C@H]2O[C@H](CO)[C@@H](O)[C@@H]2O)[C@H](OC(=O)CC(C)C)C(=O)C/C=C(/C)C(=O)O1 [Compound 1, disciformycin A]
MIC [1]: > 64 µg/mL | MIC [2]: > 64 µg/mL | MIC [3]: > 64 µg/mL | MIC [4]: > 64 µg/mL | MIC [5]: > 64 µg/mL | MIC [6]: 64 µg/mL (≈ 122 µM) | MIC [7]: 4 µg/mL (≈ 7.62 µM) | MIC [10]: > 64 µg/mL | MIC [11]: > 64 µg/mL | MIC [13]: > 64 µg/mL | MIC [16]: > 64 µg/mL

C/C=C(/C)[C@H]1C/C=C(\C)[C@@H](O[C@H]2O[C@H](CO)[C@@H](O)[C@@H]2O)[C@H](O)C(=O)CC[C@H](C)C(=O)O1 [Compound 4, gulmirecin B]
MIC [1]: > 64 µg/mL | MIC [2]: > 64 µg/mL | MIC [3]: > 64 µg/mL | MIC [4]: > 64 µg/mL | MIC [5]: > 64 µg/mL | MIC [6]: > 64 µg/mL | MIC [7]: 32 µg/mL (≈ 72.3 µM) | inhibition of proliferation [8]: did not inhibit | inhibition of proliferation [9]: did not inhibit | MIC [10]: > 64 µg/mL | MIC [11]: > 64 µg/mL | cell viability / cytotoxicity (MTT) [12]: no reduction in cell viability at the concentrations required for antibacterial activity | MIC [13]: > 64 µg/mL | zone of inhibition at 25 µg/hole [14]: 19 mm | zone of inhibition at 25 µg/hole [15]: 17 mm | MIC [16]: > 64 µg/mL | inhibition of proliferation [17]: did not inhibit
